Measurements taken from US20060188903A1, “Implantation serine proteinases” (priority 2001, published 2006).

Tests used:
ISP2 mRNA = assay: Uterine ISP2 gene expression by in situ hybridization in hormone- or RU486-treated mice; type: in vivo, mouse; settings: for induction of ISP2 gene expression: after ovariectomy without progesterone maintenance, up to 14 days; for maintenance of ISP2 gene expression: delayed implantation after ovariectomy
Description: All surgical procedures were carried out after the mice were anaesthetized with an i.p. injection of Avertin (2% (w/v) tribromoethanol; Aldrich Chemical Co. Milwaukee, Wis.). Ovariectomy was performed by dorsal-lateral incision (Hogan et al., 1994). Ovariectomized mice were allowed at least 1 wk for recovery before the induction of deciduomas. All steroid hormones including RU486 were dissolved in sesame oil and injected s.c. At each stage of the experiment, control mice were used which received only oil (0.1 ml/mouse) injections. The standard regimen for artificial induction of deciduomas (Finn, 1966) was modified to more closely mimic pseudo-pregnancy (Milligan, 1995). Here, the first progesterone treatment was started […] after exposure to oestrogen. This modified regimen consisted of 100 ng oestrogen daily starting on Day 0, and 1 mg progesterone plus 10 ng oestrogen from day three onward. Deciduomas were induced surgically on Day 5 (between 1400-1600 h) by injecting sesame oil (10 μl) into the lumen of one uterine horn from its oviductal tip. Injected and uninjected horns were collected 24, 48 or 72 hours later for histological sectioning and in situ hybridization analysis.
Delayed implantation was induced and maintained by ovariectomising mice on day 3 of pregnancy, followed by administration of progesterone (2 mg/mouse) on days 4 to 6. Subsequently, half these mice were treated with estrogen (25 ng/mouse) on the morning of the seventh day, while the other half received the normal progesterone injection. Mice were sacrificed 24 hours later for analysis by in situ hybridization.
The effect of steroids on uterine development in the absence of blastocysts was examined by ovariectomizing mice and treating them with hormone injections after a two week recovery period. They received injections of either progesterone (1 mg/mouse), estrogen (100 ng/mouse), or a combination of both (10 ng estrogen and 1 mg progesterone/mouse) for three days. Mice were then sacrificed on the morning of the fourth day. To further determine the importance of progesterone on ISP2 gene expression superovulated pregnant and pseudo-pregnant mice (Hogan et al., 1994) were treated with RU486 (400 μg/mouse) on the morning of the third day after a vaginal plug was detected. The mice were then sacrificed 24 hours later and their uterine horns were collected for in situ hybridization analysis.
Whole embryo RNA in situ hybridization using digoxigenin-labelled RNA probes was performed essentially as previously described (Rancourt and Rancourt, 1997). The ISP1 probe comprised the 478 bp RT-PCR subclone in pBSKS^+. The ISP2 probe also comprised a 478 by RT-PCR subclone in pBSKS^+. The antisense probes were synthesized using T3 polymerase after plasmid linearization with EcoRI. […]

ISP1 transcripts = assay: RT-PCR of ISP1 transcripts in oligodeoxynucleotide-treated blastocysts; type: cell-based, mouse; settings: after eight hours of culture
Description: The presence of ISP1 transcripts in embryos and placentas was monitored using RT-PCR. Total RNA (1 μg) was reverse transcribed and amplified using ISP1 specific primers (ISP1 for 5′-[…]-3′; SEQ ID NO:9 and ISP1rev 5′-GTCAAAGATGGCCACAGC-3+: SEQ ID NO: 10) and forty rounds of thermal cycling (1 min at 94° C., 2 min at 60° C., and 2 min at 72° C.). The RT-PCR amplification of GAPDH (as a control for mRNA loading) is described elsewhere (Arcellana-Panlilio and Schultz, 1993). The predicted 175 and 380 bp amplification products were separated on a 2% (w/v) agarose gel.
(§1) In antisense oligodeoxynucleotide studies, harvested blastocysts were placed in 0.001% (v/v) L-a-lysophosphatidylcholine for 60 seconds (Jones et al., 1997) and were transferred to microdrops equilibrated with 2.5 μM, 5 μM oligodeoxynucleotide or an equal volume of H2O (Behrendtsen et al., 1995). Two antisense oligodeoxynucleotides were designed against regions surrounding ISP1's initiation codon: AS1 (5′-[…]-3′; SEQ ID NO;13) situated upstream, AS2 (5′-[…]-3′; SEQ ID NO:14) lying downstream. A control oligodeoxynucleotide, SS1 (5′-[…]-3′; SEQ ID NO:15), represented the scrambled sense sequence surrounding the initiation codon. […] Blastocysts were scored at 20, 30, 40, and 60 hours for progress in hatching. […] Progress in outgrowth was monitored over a period of 5 days.

hatched blastocysts = assay: Blastocyst outgrowth on extracellular matrix after hatching; type: cell-based, mouse; settings: prehatched blastocysts in culture with oligodeoxynucleotide
Description: (§2) Morulae were collected from oviducts of superovulated, 2.5 day pregnant dams in M2 medium (Hogan et al., 1994). For hatching, morulae were cultured in microwells for approximately 24 hrs at 37° C., 5% CO2 in KSOMaa medium (Erbach et al., 1994). In embryo outgrowth, hatched blastocysts were cultured for an additional 48 hrs at 37° C., 5% CO2 in Dulbecco's Modified Eagle's Medium plus 5% (v/v) fetal bovine serum on microwells coated with extracellular matrix derived from 10% (v/v) Triton X-100-treated mouse embryo fibroblasts (Behrendtsen et al., 1995).
as §1

strypsin = assay: Histochemical staining of strypsin activity in blastocysts; type: cell-based, mouse; settings: 24 hours of treatment
Description: Whole embryo RNA in situ hybridization using digoxigenin-labelled RNA probes was performed essentially as previously described (Rancourt and Rancourt, 1997). The ISP1 probe comprised the 478 bp RT-PCR subclone in pBSKS^+. The ISP2 probe also comprised a 478 by RT-PCR subclone in pBSKS^+. The antisense probes were synthesized using T3 polymerase after plasmid linearization with EcoRI. The sense probes were synthesized using T7 polymerase after plasmid linearization with BamHI. All experiments were performed with the sense RNA probe in parallel to detect non-specific hybridization. Histochemical staining of strypsin activity was performed essentially as outlined previously (Perona and Wassarman, 1986). Embryos were collected as early blastocysts in M2 medium, and were lightly fixed in 1.25% (w/v) glutaraldehyde in 0.25M sucrose, 50 mM sodium phosphate (pH7.5) for five min at 4° C. Following fixation, the blastocysts were placed in 50 mM sodium phosphate (pH7.5) containing the substrate N-α-benzoyl-DL-arginine β-napthylamide (0.56 mM; Sigma) and Fast Garnet GBC salt (1.86 mM; Sigma), were incubated for 5 min at room temperature and washed in 50 mM sodium phosphate (pH7.5).
as §1

Mouse Blastocysts = assay: In vitro blastocyst hatching after oligodeoxynucleotide administration; type: cell-based; settings: for Percent Hatched over Time: 100 blastocysts; for effect on blastocyst hatching (in words): scored at 20, 30, 40 and 60 hours
Description: as §2
In antisense oligodeoxynucleotide studies, harvested blastocysts were placed in 0.001% (v/v) L-a-lysophosphatidylcholine for 60 seconds (Jones et al., 1997) and were transferred to microdrops equilibrated with 2.5 μM, 5 μM oligodeoxynucleotide or an equal volume of H2O (Behrendtsen et al., 1995). Two antisense oligodeoxynucleotides were designed against regions surrounding ISP1's initiation codon: AS1 (5′-[…]-3′; SEQ ID NO;13) situated upstream, AS2 (5′-[…]-3′; SEQ ID NO:14) lying downstream. A control oligodeoxynucleotide, SS1 (5′-[…]-3′; SEQ ID NO:15), represented the scrambled sense sequence surrounding the initiation codon. The oligodeoxynucleotides were designed using Oligo™ software and were synthesized and purified by Dr. Richard Pon, UC DNA Services (University of Calgary). Blastocysts were scored at 20, 30, 40, and 60 hours for progress in hatching. […] Following eight hours of treatment, some blastocysts were assayed for the presence of ISP1 transcripts using RT-PCR. Following 24 hours of treatment, some blastocysts were assayed for strypsin activity using histochemical staining. In outgrowth studies, blastocysts were allowed to hatch and then transferred to microdrops equilibrated with oligodeoxynucleotide or water. Progress in outgrowth was monitored over a period of 5 days.
A possible role for ISP1 in hatching was examined by determining whether ISP1 mRNA could be reduced in blastocysts by treatment with antisense oligodeoxynucleotides (Behrendtsen et al., 1995; Jones et al., 1997) and result in an alteration of the hatching process. Two antisense oligodeoxynucleotides were designed surrounding ISP1's initiation codon covering the region immediately upstream (AS1) and downstream (AS2). A control oligodeoxynucleotide (SS1) represented the scrambled sense sequence surrounding the initiation codon. Blastocysts were scored at 20, 30, 40, and 60 hours for progress in hatching.

Compound	induction of ISP2 gene expression (ISP2 mRNA)	maintenance of ISP2 gene expression (ISP2 mRNA)	ISP1 transcript levels (in words) (ISP1 transcripts; versus untreated controls)	time to adhere to extracellular matrix (hatched blastocysts)	strypsin activity at the abembryonic pole (histochemical) (strypsin)	Percent Hatched over Time (Mouse Blastocysts; 2.5 µM, 20 hours)	Percent Hatched over Time (Mouse Blastocysts; 2.5 µM, 30 hours)	Percent Hatched over Time (Mouse Blastocysts; 2.5 µM, 40 hours)	Percent Hatched over Time (Mouse Blastocysts; 2.5 µM, 60 hours)	Percent Hatched over Time (Mouse Blastocysts; 5.0 µM, 20 hours)	Percent Hatched over Time (Mouse Blastocysts; 5.0 µM, 30 hours)	Percent Hatched over Time (Mouse Blastocysts; 5.0 µM, 40 hours)	Percent Hatched over Time (Mouse Blastocysts; 5.0 µM, 60 hours)	reduction of accumulation of ISP1 transcripts (ISP1 transcripts)	strypsin activity at the abembryonic pole (histochemical) (strypsin; listed as antisense oligodeoxynucleotide)	effect on blastocyst hatching (in words) (Mouse Blastocysts)
estrogen	did not have a stimulatory effect	not observed														
SS1: control oligodeoxynucleotide, scrambled sense sequence surrounding the ISP1 initiation codon, 5′-ACGGTAGTTAGAAGAGTTCT-3′; SEQ ID NO:15 (DNA, backbone and methylation of C not given here) [reference compound]			significant reduction was not observed	2 days	localized strypsin activity was observed	10%	16%	58%	90%	10%	39%	61%	77%			
CC(=O)[C@H]1CC[C@H]2[C@@H]3CCC4=CC(=O)CC[C@]4(C)[C@H]3CC[C@]12C [progesterone]	could be induced	normal ISP2 expression was observed														
AS1: antisense oligodeoxynucleotide upstream of ISP1's initiation codon, 5′-TCTAACTACCGTCTAACAACG-3′; SEQ ID NO:13 (DNA, backbone and methylation of C not given here)				5 days	reduced strypsin activity	0%	0%	16%	37%	10%	10%	20%	20%	at least 100 fold	strypsin activity was absent	interfered specifically with blastocyst hatching
AS2: antisense oligodeoxynucleotide downstream of ISP1's initiation codon, 5′-GAACTCTTCTAACTACCGTCT-3′; SEQ ID NO:14 (DNA, backbone and methylation of C not given here)						0%	20%	35%	40%	0%	5%	35%	45%			interfered specifically with blastocyst hatching
